Measured values: patent US11357779B2 (G1 Therapeutics, Inc., priority 2018, dated 2022)
Where two headings read alike, the source gives them in different places.

Assay: Plasma concentration versus time of Compound I and metabolite Compound III in patients dosed QD or BID with Form B of Compound II plus fulvestrant
Assay type: in vivo, human
Conditions: human, plasma, oral; for concentration at 22 day: Day 22; for concentration at 24 h: Day 1, […]
Source text: Patients were enrolled into 1 of 2 parallel, independently operating, dose-escalation dosing cohorts with Form B of Compound II administered continuously either once daily (QD) or twice daily (BID) with food with fixed-dose fulvestrant (intramuscularly every 14 days for the first three injections and then every 28 days). Pre- or perimenopausal patients also received goserelin for the duration of study treatment. A […] agonist was started at least 28 days before the first dose of Form B, and those patients who were taking another LHRH agonist were switched to goserelin on Day 1. Patients were split into […] cohorts providing once a day (QD) dosing of 200 mg, 300 mg, 400 mg, 500 mg, or 650 mg of Form B, or twice a day (BID) dosing of 100 mg, 150 mg, or 200 mg of Form B. The second dose in BID cohorts was not administered in the evening until at least 12 hours after the initial morning dose of Form B. The dosing cohorts for Form B of Compound II are provided in Table 1.
Blood samples were collected at the following time points relative to the morning dose of Form B at Day 1 and at Day 29: pre-dose (0 hour) and 1, 2, 3, 4, 6, 8, 10, 12 (prior to the evening dose in the BID cohorts), and 24 (prior to the next day's morning dose) hours after dosing. A 5-minute time window was allowed for samples collected between the predose and 3 hours after Form B dosing. A 15-minute window was allowed for samples collected between 4 to 12 hours after Form B dosing. A 1-hour window was allowed for the sample collected 24 hours after Form B dosing. Blood samples for Compound I PK trough levels were collected pre-dose at Day 8, Day 15, and Day 22 prior to the morning administration of Compound I. Plasma concentrations of Compound I and its metabolite, Compound III, were measured using validated methods.
Analysis of plasma concentration versus time data for calculation of standard pharmacokinetic (PK) parameters following oral administration was conducted using Phoenix WinNonlin version 6.3 using actual blood sampling times.

In the case of CC(C)N1CCN(c2ccc(Nc3ncc4cc5n(c4n3)C3(CCCCC3)CNC5=O)nc2)CC1 [Compound I, 2′-((5-(4-isopropylpiperazin-1-yl)pyridin-2-yl)amino)-7′,8′-dihydro-6′H-spiro[cyclohexane-1,9′-pyrazino[1′,2′:1,5]pyrrolo[2,3-d]pyrimidin]-6′-one], the concentration at 15 day (150 mg, Cohort 7, 150 mg BID of Form B, Day 15, read-out: Trough Compound I Concentration, Min) is reported as 15.5 ng/mL, the concentration at 22 day (150 mg, Cohort 7, 150 mg BID of Form B, read-out: Trough Compound I Concentration, Max) is reported as 30.5 ng/mL and the concentration at 22 day (150 mg, Cohort 7, 150 mg BID of Form B, read-out: Trough Compound I Concentration, Median) is reported as 15.9 ng/mL. It also gave a concentration at 22 day (150 mg, Cohort 7, 150 mg BID of Form B, read-out: Trough Compound I Concentration, Min) of 15.5 ng/mL, a concentration at 0 h (150 mg, Cohort 7, 150 mg BID of Form B, Day 29, 0.0 h, read-out: Compound I Concentration, Max) of 51.1 ng/mL and a concentration at 0 h (150 mg, Cohort 7, 150 mg BID of Form B, Day 29, 0.0 h, read-out: Compound I Concentration, Median) of 18.5 ng/mL. The concentration at 1 h (150 mg, Cohort 7, 150 mg BID of Form B, Day 29, 1.0 h, read-out: Compound I Concentration, Median) was 28.7 ng/mL, the concentration at 2 h (150 mg, Cohort 7, 150 mg BID of Form B, Day 29, 2.0 h, read-out: Compound I Concentration, Median) was 34.3 ng/mL and the concentration at 3 h (150 mg, Cohort 7, 150 mg BID of Form B, Day 29, 3.0 h, read-out: Compound I Concentration, Median) was 35.6 ng/mL. It also gave a concentration at 4 h (150 mg, Cohort 7, 150 mg BID of Form B, Day 29, 4.0 h, read-out: Compound I Concentration, Median) of 36.9 ng/mL, a concentration at 6 h (150 mg, Cohort 7, 150 mg BID of Form B, Day 29, 6.0 h, read-out: Compound I Concentration, Median) of 26.5 ng/mL and a concentration at 8 h (150 mg, Cohort 7, 150 mg BID of Form B, Day 29, 8.0 h, read-out: Compound I Concentration, Median) of 26.9 ng/mL. It also gave a concentration at 10 h (150 mg, Cohort 7, 150 mg BID of Form B, Day 29, 10.0 h, read-out: Compound I Concentration, Median) of 23.8 ng/mL, a concentration at 12 h (150 mg, Cohort 7, 150 mg BID of Form B, Day 29, 12.0 h, read-out: Compound I Concentration, Median) of 17.3 ng/mL and a concentration at 0 h (200 mg, 200 mg BID of Form B, Day 1, 0.0 h, Mean, read-out: Compound I Concentration) of 0 ng/mL. The concentration at 0 h (200 mg, 200 mg BID of Form B, Day 1, 0.0 h, Median, read-out: Compound I Concentration) was 0 ng/mL, the concentration at 1 h (200 mg, 200 mg BID of Form B, Day 1, 1.0 h, Mean, read-out: Compound I Concentration) was 5.79 ng/mL and the concentration at 1 h (200 mg, 200 mg BID of Form B, Day 1, 1.0 h, Median, read-out: Compound I Concentration) was 6.13 ng/mL. The concentration at 2 h (200 mg, 200 mg BID of Form B, Day 1, 2.0 h, Mean, read-out: Compound I Concentration) was 9.42 ng/mL, the concentration at 2 h (200 mg, 200 mg BID of Form B, Day 1, 2.0 h, Median, read-out: Compound I Concentration) was 11.8 ng/mL and the concentration at 3 h (200 mg, 200 mg BID of Form B, Day 1, 3.0 h, Mean, read-out: Compound I Concentration) was 12.8 ng/mL. The concentration at 3 h (200 mg, 200 mg BID of Form B, Day 1, 3.0 h, Median, read-out: Compound I Concentration) was 14.8 ng/mL, the concentration at 4 h (200 mg, 200 mg BID of Form B, Day 1, 4.0 h, Mean, read-out: Compound I Concentration) was 15.5 ng/mL and the concentration at 4 h (200 mg, 200 mg BID of Form B, Day 1, 4.0 h, Median, read-out: Compound I Concentration) was 14.9 ng/mL. The concentration at 6 h (200 mg, 200 mg BID of Form B, Day 1, 6.0 h, Mean, read-out: Compound I Concentration) was 15.5 ng/mL, the concentration at 6 h (200 mg, 200 mg BID of Form B, Day 1, 6.0 h, Median, read-out: Compound I Concentration) was 17.1 ng/mL and the concentration at 8 h (200 mg, 200 mg BID of Form B, Day 1, 8.0 h, Mean, read-out: Compound I Concentration) was 8.94 ng/mL. For the same compound, the concentration at 8 h (200 mg, 200 mg BID of Form B, Day 1, 8.0 h, Median, read-out: Compound I Concentration) was 9.13 ng/mL, the concentration at 10 h (200 mg, 200 mg BID of Form B, Day 1, 10.0 h, Mean, read-out: Compound I Concentration) was 6.61 ng/mL and the concentration at 10 h (200 mg, 200 mg BID of Form B, Day 1, 10.0 h, Median, read-out: Compound I Concentration) was 6.33 ng/mL. It also gave a concentration at 12 h (200 mg, 200 mg BID of Form B, Day 1, 12.0 h, Mean, read-out: Compound I Concentration) of 5.64 ng/mL, a concentration at 12 h (200 mg, 200 mg BID of Form B, Day 1, 12.0 h, Median, read-out: Compound I Concentration) of 4.89 ng/mL and a concentration at 0 h (200 mg, 200 mg QD of Form B, Day 1, 0.0 h, Mean, read-out: Compound I Concentration) of 0 ng/mL. For the same compound, the concentration at 0 h (200 mg, 200 mg QD of Form B, Day 1, 0.0 h, Median, read-out: Compound I Concentration) was 0 ng/mL, the concentration at 1 h (200 mg, 200 mg QD of Form B, Day 1, 1.0 h, Mean, read-out: Compound I Concentration) was 8.42 ng/mL and the concentration at 1 h (200 mg, 200 mg QD of Form B, Day 1, 1.0 h, Median, read-out: Compound I Concentration) was 3.65 ng/mL. The concentration at 2 h (200 mg, 200 mg QD of Form B, Day 1, 2.0 h, Mean, read-out: Compound I Concentration) was 13.6 ng/mL, the concentration at 2 h (200 mg, 200 mg QD of Form B, Day 1, 2.0 h, Median, read-out: Compound I Concentration) was 12.3 ng/mL and the concentration at 3 h (200 mg, 200 mg QD of Form B, Day 1, 3.0 h, Mean, read-out: Compound I Concentration) was 20.2 ng/mL. For the same compound, the concentration at 3 h (200 mg, 200 mg QD of Form B, Day 1, 3.0 h, Median, read-out: Compound I Concentration) was 18.1 ng/mL, the concentration at 4 h (200 mg, 200 mg QD of Form B, Day 1, 4.0 h, Mean, read-out: Compound I Concentration) was 25 ng/mL and the concentration at 4 h (200 mg, 200 mg QD of Form B, Day 1, 4.0 h, Median, read-out: Compound I Concentration) was 27 ng/mL. For the same compound, the concentration at 6 h (200 mg, 200 mg QD of Form B, Day 1, 6.0 h, Mean, read-out: Compound I Concentration) was 16.8 ng/mL, the concentration at 6 h (200 mg, 200 mg QD of Form B, Day 1, 6.0 h, Median, read-out: Compound I Concentration) was 17.7 ng/mL and the concentration at 8 h (200 mg, 200 mg QD of Form B, Day 1, 8.0 h, Mean, read-out: Compound I Concentration) was 11.6 ng/mL. It also gave a concentration at 8 h (200 mg, 200 mg QD of Form B, Day 1, 8.0 h, Median, read-out: Compound I Concentration) of 12.2 ng/mL, a concentration at 10 h (200 mg, 200 mg QD of Form B, Day 1, 10.0 h, Mean, read-out: Compound I Concentration) of 8.28 ng/mL and a concentration at 10 h (200 mg, 200 mg QD of Form B, Day 1, 10.0 h, Median, read-out: Compound I Concentration) of 9.13 ng/mL. For the same compound, the concentration at 12 h (200 mg, 200 mg QD of Form B, Day 1, 12.0 h, Mean, read-out: Compound I Concentration) was 6.29 ng/mL, the concentration at 12 h (200 mg, 200 mg QD of Form B, Day 1, 12.0 h, Median, read-out: Compound I Concentration) was 6.43 ng/mL and the concentration at 24 h (200 mg, 200 mg QD of Form B, Mean, read-out: Compound I Concentration) was 3.61 ng/mL. It also gave a concentration at 24 h (200 mg, 200 mg QD of Form B, Median, read-out: Compound I Concentration) of 3.24 ng/mL, a concentration at 0 h (200 mg, 200 mg QD of Form B, Day 29, 0.0 h, Mean, read-out: Compound I Concentration) of 4.05 ng/mL and a concentration at 0 h (200 mg, 200 mg QD of Form B, Day 29, 0.0 h, Median, read-out: Compound I Concentration) of 4.1 ng/mL. For the same compound, the concentration at 1 h (200 mg, 200 mg QD of Form B, Day 29, 1.0 h, Mean, read-out: Compound I Concentration) was 5.12 ng/mL, the concentration at 1 h (200 mg, 200 mg QD of Form B, Day 29, 1.0 h, Median, read-out: Compound I Concentration) was 5.35 ng/mL and the concentration at 2 h (200 mg, 200 mg QD of Form B, Day 29, 2.0 h, Mean, read-out: Compound I Concentration) was 6.92 ng/mL. For the same compound, the concentration at 2 h (200 mg, 200 mg QD of Form B, Day 29, 2.0 h, Median, read-out: Compound I Concentration) was 7.27 ng/mL and the concentration at 3 h (200 mg, 200 mg QD of Form B, Day 29, 3.0 h, Mean, read-out: Compound I Concentration) was 12.5 ng/mL.
